Results reported in US9522873B2, “Biphenyl derivative, pharmaceutically acceptable salt thereof, and methods for preventing or treating inflammatory diseases or autoimmune diseases” (Dongguk University Industry-Academic Cooperation Foundation, priority 2011, dated 2016).

Key:
Type in all cases: in vivo
[1] = test system: TPA-induced ear edema (inflammation) mouse models; assay: TPA-induced ear edema (inflammation) mouse model: ear weight and H&E staining; conditions: ICR male mice, 20 μl of 0.3% and 1% applied to left ear 1 hour and 6 hours after TPA, harvested after 24 hours
Method: (§1) The following experiment was performed using tetradecanoyl phorbol acetate (TPA)-induced ear edema (inflammation) mouse models to analyze the anti-inflammatory activity of the novel biphenyl compounds obtained in Example 1. The TPA-induced ear edema mouse model has been widely used to investigate the mechanism of the inflammatory response and the effects of inhibitory substances (Agents and Actions. 1989. 26; 335-341). More specifically, 6-week-old ICR male mice were prepared, and each 20 μl of a TPA solution dissolved in acetone at a concentration of 125 μg/ml was applied to the left ears of mice. After 1 hour of the TPA application, each 20 μl of the solvent or compound 6 (0.3% and 1%) prepared in Example 1 and dissolved in the solvent was applied to the left ears of mice and reapplied after 6 hours of the TPA application. Indomethacin, an anti-inflammatory agent, was applied to the positive control group. Each predetermined area of the left ears of mice was harvested after 24 hours of the TPA application. The weight of each of the left ears of mice was measured, and H&E staining and immunohistochemical staining were performed on ear tissues.

[2] = test system: inflammation-related protein p65; assay: TPA-induced ear edema mouse model: immunohistochemical staining of ear tissue for p65; conditions: ear tissue of TPA-treated ICR mice, 24 hours after TPA, FIG. 7
Method: as §1

[3] = test system: anti-inflammatory protein IkB (inhibitory kappa B); assay: TPA-induced ear edema mouse model: immunohistochemical staining of ear tissue for IkB; conditions: ear tissue of TPA-treated ICR mice, 24 hours after TPA, FIG. 8
Method: as §1

CCCCC(=O)N(Cc1ccc(-c2ccccc2C(=O)N2CCN(C)CC2)cc1)c1ccccc1 [compound 4, N-[(2′-(4-methylpiperazine-1-carbonyl)biphenyl-4-yl)methyl]-N-phenylpentanamide]
inflammation and edema induced by TPA (ear weight) ([1]; FIG. 5): inhibited | ear tissues thickened by the edema induced by TPA (H&E staining) ([1]; FIG. 6): recovered to normal level | expression of inflammation-related protein p65 [2]: decreased | expression of anti-inflammatory protein IkB (inhibitory kappa B) [3]: increased
